Laboratory results from BindingDB's records for doi:10.1016/j.bmcl.2003.11.081 (Cubist Pharmaceuticals, 2004).

Key:
[1] = molecular target: T1, Phenylalanine--tRNA ligase, mitochondrial (Homo sapiens, UniProt O95363); assay: ChEBML_154873
T1 sequence (O95363 whole entry): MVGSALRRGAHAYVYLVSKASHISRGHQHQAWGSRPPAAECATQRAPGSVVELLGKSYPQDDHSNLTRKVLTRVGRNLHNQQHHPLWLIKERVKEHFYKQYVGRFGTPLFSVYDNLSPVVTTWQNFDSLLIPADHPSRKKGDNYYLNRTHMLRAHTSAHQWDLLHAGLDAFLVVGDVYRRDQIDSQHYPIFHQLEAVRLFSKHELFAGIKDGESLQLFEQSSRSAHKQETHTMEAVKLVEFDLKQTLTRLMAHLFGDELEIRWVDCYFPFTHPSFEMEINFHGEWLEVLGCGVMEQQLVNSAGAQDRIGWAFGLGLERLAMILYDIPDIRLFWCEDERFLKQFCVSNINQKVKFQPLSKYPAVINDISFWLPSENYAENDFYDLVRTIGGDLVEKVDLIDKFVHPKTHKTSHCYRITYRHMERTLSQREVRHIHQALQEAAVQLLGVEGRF
Experimental: (§1) Inhibitory activity against human phenylalanyl-tRNA synthetase was determined

[2] = molecular target: T1, Phenylalanine--tRNA ligase, mitochondrial; assay: as §1
[3] = molecular target: Phenylalanine--tRNA ligase (Enterococcus faecalis); assay: Inhibitory activity against phenylalanyl-tRNA synthetase from Enterococcus faecalis
[4] = molecular target: Phenylalanine--tRNA ligase (Enterococcus faecalis); assay: as above; remark: listed apart in the source
[5] = molecular target: Phenylalanine--tRNA ligase (Staphylococcus aureus); assay: Inhibitory activity against phenylalanyl-tRNA synthetase from Staphylococcus aureus

Row | Compound | IC50 [1] [µM] | IC50 [2] [µM] | IC50 [3] [µM] | IC50 [4] [µM] | IC50 [5] [µM]
1 | Oc1c2c(c(O)n1-c1ccc(Cl)c(Cl)c1)C1(Cc3ccccc3C1)NC2c1ccccc1 (stereo unspecified) | > 100 | > 100 | > 100 | > 100 | > 100
2 | O=C1c2ccccc2C(=O)C12OC(c1ccccc1)c1c2c(O)n(-c2ccc(Cl)c(C(F)(F)F)c2)c1O [5-(4-chloro-3-trifluoromethylphenyl)-3-phenyl-(3R,3aS,6aR)-spiro[perhydrofuro[3,4-c]pyrrole-1,2'-(2',3'-dihydro-1'H-indene)]-1',3',4,6-tetraone] |  |  | 32 |  | 45
3 | O=C1c2ccccc2C(=O)C12OC(c1ccccc1)c1c2c(O)n(-c2ccc([N+](=O)[O-])cc2)c1O [5-(4-nitrophenyl)-3-phenyl-(3R,3aS,6aR)-spiro[perhydrofuro[3,4-c]pyrrole-1,2'-(2',3'-dihydro-1'H-indene)]-1',3',4,6-tetraone] | > 100 |  | > 100 |  | > 100
4 | Cc1ccc(C2OC3(C(=O)c4ccccc4C3=O)c3c2c(O)n(-c2ccc4c(c2)OCO4)c3O)cc1 [5-benzo[d][1,3]dioxol-5-yl-3-(4-methylphenyl)-(3R,3aS,6aR)-spiro[perhydrofuro[3,4-c]pyrrole-1,2'-(2',3'-dihydro-1'H-indene)]-1',3',4,6-tetraone] | > 100 |  | > 100 | > 100 | 
5 | COC(=O)C1NC(c2ccccc2)c2c1c(O)n(-c1ccc(Cl)c(Cl)c1)c2O [methyl 5-(3,4-dichlorophenyl)-4,6-dioxo-3-phenyl-(3R,3aS,6aR)-perhydropyrrolo[3,4-c]pyrrole-1-carboxylate] | > 100 |  | > 100 | > 100 | 
